According to US20170114021A1, “HALOGEN-SUBSTITUTED COMPOUNDS” (priority 2014, published 2017):

How the values were obtained:
Assay type in all cases: in vivo
Tetranychus urticae = Tetranychus urticae spray test, OP-resistant (TETRUR); settings: application rate 100 g/ha; bean leaf discs; after 6 days
Description: Tetranychus urticae—Spray Test, OP-Resistant (TETRUR) Solvent: 78.0 parts by weight of acetone • • 1.5 parts by weight of dimethylformamide Emulsifier: alkylaryl polyglycol ether
(§1) To produce a suitable preparation of active compound, 1 part by weight of active compound is dissolved using the specified parts by weight of solvent and made up with water containing an emulsifier concentration of 1000 ppm until the desired concentration is attained. To produce further test concentrations, the preparation is diluted with emulsifier-containing water.
Discs of bean leaves (Phaseolus vulgaris) infested by all stages of the greenhouse red spider mite (Tetranychus urticae) are sprayed with an active ingredient formulation of the desired concentration.
After 6 days, efficacy in % is determined. 100% means that all the spider mites have been killed; 0% means that no spider mites have been killed.

Spodoptera frugiperda = Spodoptera frugiperda spray test (SPODFR); settings: application rate 100 g/ha; maize leaf discs; after 7 days
Description: Spodoptera frugiperda—Spray Test (SPODFR)
Solvent: 78.0 parts by weight of acetone • • 1.5 parts by weight of dimethylformamide Emulsifier: alkylaryl polyglycol ether
as §1
Leaf discs of maize (Zea mays) are sprayed with an active compound preparation of the desired concentration and, after drying, populated with caterpillars of the armyworm (Spodoptera frugiperda).
After 7 days, efficacy in % is determined. 100% means that all the caterpillars have been killed; 0% means that no caterpillars have been killed.

Rhipicephalus sanguineus = Rhipicephalus sanguineus in vitro contact test; settings: application rate 5 μg/cm^2; adult dog ticks; after 48 h
Description: Rhipicephalus sanguineus—In Vitro Contact Tests
For the coating of the test tubes, 9 mg of active compound are first dissolved in 1 ml of acetone p.a. and then diluted to the desired concentration with acetone p.a. 250 μl of the solution are distributed homogeneously on the inner walls and the base of a 25 ml test tube by turning and rocking on an orbital shaker (rocking rotation at 30 rpm for 2 h). With 900 ppm active compound solution and internal surface 44.7 cm^2, given homogeneous distribution, an area-based dose of 5 μg/cm^2 is achieved.
After the solvent has evaporated off, the tubes are populated with 5-10 adult dog ticks (Rhipicephalus sanguineus), sealed with a perforated plastic lid and incubated in a horizontal position in the dark at room temperature and ambient humidity. After 48 h, efficacy is determined. To this end, the ticks are knocked to the floor of the tube and incubated on a hotplate at 45-50° C. for not more than 5 min. Ticks which remain motionless on the floor or move in such an uncoordinated manner that they are unable to deliberately avoid the heat by climbing upwards are considered to be dead or moribund.
An efficacy of 100% means that all the ticks were dead or moribund. 0% efficacy means that none of the ticks had been harmed.

Myzus persicae = Myzus persicae spray test (MYZUPE); settings: application rate 100 g/ha; Chinese cabbage leaf discs; after 6 days
Description: Myzus persicae—Spray Test (MYZUPE) Solvent: 78 parts by weight of acetone • • 1.5 parts by weight of dimethylformamide Emulsifier: alkylaryl polyglycol ether
as §1
Discs of Chinese cabbage leaves (Brassica pekinensis) infested by all stages of the green peach aphid (Myzus persicae) are sprayed with an active compound preparation of the desired concentration.
After 6 days, efficacy in % is determined. 100% means that all the aphids have been killed; 0% means that no aphids have been killed.

N-{2-fluoro-5-[2′-methyl-5′-(pentafluoroethyl)-4′-(trifluoromethyl)-2′H-1,3′-bipyrazol-4-yl]benzyl}propanamide [Ic-1]
efficacy (Tetranychus urticae): 100%
efficacy (Spodoptera frugiperda): 100%
efficacy (Rhipicephalus sanguineus): 100%
efficacy (Myzus persicae): 90%
